The values below come from patent US7759337B2, “Phthalazine compounds and methods of use” (Amgen Inc., priority 2005, dated 2010).

The structures appear in SMILES notation. A value given as a limit tells only on which side of the number the result lay.

As usually defined, the IC50 is the concentration needed to halve the response being measured. Low readings indicate higher potency, high ones lower potency.

The subject of the assay is production of TNF by monocytes activated with bacterial lipopolysaccharide (LPS). Nature of the assay: Lipopolysaccharide-activated monocyte TNF production assay. The following applies: Homo sapiens; whole blood monocyte assay (LPS induced TNF release). The format is cell-based. The gist of the method: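 Adherent human PBMC-derived monocytes preincubated 60 min with nine two-fold compound dilutions, then stimulated with E. coli K532 LPS (30 ng/mL in the added medium) for 4 h at 37 °C. Supernatant TNF measured by sandwich ELISA; IC50 is the compound concentration halving TNF production, from second-order polynomial fits.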

For `Cc1ccc(C(=O)NC2CC2)cc1-c1ccc2c(N3CCN(C(=O)NCc4ccc(F)cc4)CC3)nncc2c1` [Example 139, 4-(6-{5-[(cyclopropylamino)carbonyl]-2-methylphenyl}phthalazin-1-yl)-N-(4-fluorobenzyl)piperazine-1-carboxamide], the IC50 was ≤ 5 µM.
With `Cc1cc(F)ccc1-c1nncc2cc(Oc3ccccc3)ccc12` [Example 347, 1-(4-fluoro-2-methylphenyl)-6-phenoxyphthalazine] the figure was ≤ 5 µM.
Regarding `CNS(=O)(=O)c1ccc(C)c(-c2ccc3c(NC(C)C)nncc3c2)c1` [Example 358, 3-[1-(isopropylamino)phthalazin-6-yl]-N,4-dimethylbenzenesulfonamide], the IC50 is ≤ 5 µM.
With `CC[C@@H](C)Nc1nncc2cc(-c3cc(C(=O)NC4CC4)ccc3C)ccc12` [Example 314, N-cyclopropyl-4-methyl-3-(1-{[(1R)-1-methylpropyl]amino}phthalazin-6-yl)benzamide], the IC50 was ≤ 5 µM.
As for `COc1cc(Cl)ccc1-c1nncc2cc(-c3cc(C(=O)NC4CC4)ccc3C)ccc12` [Example 224, 3-[1-(4-chloro-2-methoxyphenyl)phthalazin-6-yl]-N-cyclopropyl-4-methylbenzamide], the half-inhibitory concentration (IC50) is ≤ 5 µM.
Consider `Fc1ccc(Oc2ccc3c(N4CCOCC4)nncc3c2)c(F)c1` [Example 356, 6-(2,4-difluorophenoxy)-1-morpholin-4-ylphthalazine], for which the half-inhibitory concentration (IC50) is ≤ 5 µM.
For the molecule `Cc1ccc(C(=O)NC2CC2)cc1-c1ccc2c(N3CC[C@@H](O)C3)nncc2c1` [Example 166, N-cyclopropyl-3-{1-[(3R)-3-hydroxypyrrolidin-1-yl]phthalazin-6-yl}-4-methylbenzamide], the IC50 was ≤ 5 µM.
On to `Cc1ccc(C(=O)NC2CC2)cc1-c1ccc2c(-c3ccncc3C)nncc2c1` [Example 263, N-cyclopropyl-4-methyl-3-[1-(3-methylpyridin-4-yl)phthalazin-6-yl]benzamide], for which the 50% inhibitory concentration (IC50) was ≤ 5 µM.
Under `COc1ncccc1-c1nncc2cc(Oc3ccc(F)cc3)ccc12` [Example 349, 6-(4-fluorophenoxy)-1-(2-methoxypyridin-3-yl)phthalazine] stands ≤ 5 µM.
Take `Cc1ccc(C(N)=O)cc1-c1ccc2c(N3C[C@@H](C)NC[C@@H]3C)nncc2c1` [Example 122, 3-{1-[(2S,5R)-2,5-dimethylpiperazin-1-yl]phthalazin-6-yl}-4-methylbenzamide]: the concentration for half-maximal inhibition (IC50) is ≤ 5 µM.
As for `Fc1ccc(Oc2ccc3c(N4C[C@@H]5C[C@H]4CO5)nncc3c2)cc1` [Example 350, (1S,4S)-5-[6-(4-fluorophenoxy)phthalazin-1-yl]-2-oxa-5-azabicyclo[2.2.1]heptane], the IC50 is ≤ 5 µM.
Under `Cc1ccc(C(=O)NC2CC2)cc1-c1ccc2c(-c3ccccc3F)nncc2c1` [Example 246, N-cyclopropyl-3-[1-(2-fluorophenyl)phthalazin-6-yl]-4-methylbenzamide] stands ≤ 5 µM; under `Cc1ccc(C(=O)NC2CC2)cc1-c1ccc2c(N3[C@H](C)CC[C@H]3C)nncc2c1` [Example 395, N-cyclopropyl-3-{1-[(2R,5R)-2,5-dimethylpyrrolidin-1-yl]phthalazin-6-yl}-4-methylbenzamide], ≤ 5 µM; under `Cc1ccc(C(N)=O)cc1-c1ccc2c(-c3ccc(S(N)(=O)=O)cc3C)nncc2c1` [Example 236, 3-{1-[4-(aminosulfonyl)-2-methylphenyl]phthalazin-6-yl}-4-methylbenzamide], ≤ 5 µM.
For the molecule `Cc1ccc(C(=O)NC2CC2)cc1-c1ccc2c(N3CCC4(CC3)OCCO4)nncc2c1` [Example 167, N-cyclopropyl-3-[1-(1,4-dioxa-8-azaspiro[4.5]dec-8-yl)phthalazin-6-yl]-4-methylbenzamide], the 50% inhibitory concentration (IC50) was ≤ 5 µM.
On to `Cc1ccc(C(=O)NC2CC2)cc1-c1ccc2c(N3CC4CC3CN4)nncc2c1` (centres unmarked) [Example 20, 3-(1-(2,5-diaza-bicyclo[2.2.1]heptan-2-yl)phthalazin-6-yl)-N-cyclopropyl-4-methylbenzamide], for which the half-maximal inhibitory concentration (IC50) is ≤ 5 µM.
Take `Cc1ccc(C(=O)NC2CC2)cc1-c1ccc2c(-c3ccc(C(C)(C)C(=O)O)cc3)nncc2c1` [Example 205, 2-[4-(6-{5-[(cyclopropylamino)carbonyl]-2-methylphenyl}phthalazin-1-yl)phenyl]-2-methylpropanoic acid]: the IC50 is ≤ 5 µM.
Regarding `Cc1ccc(C(=O)NC2CC2)cc1-c1ccc2c(N3C[C@@H]4C[C@H]3CN4C(C)C)nncc2c1` [Example 144, N-cyclopropyl-3-{1-[(1S,4S)-5-isopropyl-2,5-diazabicyclo[2.2.1]hept-2-yl]phthalazin-6-yl}-4-methylbenzamide], the 50% inhibitory concentration (IC50) was ≤ 5 µM.
With `Cc1ccc(C(=O)NC2CC2)cc1-c1ccc2c(NC(C)c3ccccn3)nncc2c1` (centres unmarked) [Example 369, N-cyclopropyl-4-methyl-3-{1-[(1-pyridin-2-ylethyl)amino]phthalazin-6-yl}benzamide] the figure was ≤ 5 µM; with `Cc1ccc(C(=O)NC2CC2)cc1-c1ccc2c(N3C[C@H](C)OC[C@H]3C)nncc2c1` [Example 173, N-cyclopropyl-3-{1-[(2S,5R)-2,5-dimethylmorpholin-4-yl]phthalazin-6-yl}-4-methylbenzamide], ≤ 5 µM.
Regarding `Cc1ccc(C(=O)NC2CC2)cc1-c1ccc2c(N3CCN(C(=O)Nc4ccccc4)CC3)nncc2c1` [Example 124, 4-(6-{5-[(cyclopropylamino)carbonyl]-2-methylphenyl}phthalazin-1-yl)-N-phenylpiperazine-1-carboxamide], the IC50 is ≤ 5 µM.
Regarding `Cc1ccc(C(=O)NC2CC2)cc1-c1ccc2c(N3CCC[C@@H](C(N)=O)C3)nncc2c1` [Example 132, (3R)-1-(6-{5-[(cyclopropylamino)carbonyl]-2-methylphenyl}phthalazin-1-yl)piperidine-3-carboxamide], the concentration for half-maximal inhibition (IC50) is ≤ 5 µM.
For `Cc1ccc(C(=O)NC2CC2)cc1-c1ccc2c(NC3CCCCC3)nncc2c1` [Example 158, 3-[1-(cyclohexylamino)phthalazin-6-yl]-N-cyclopropyl-4-methylbenzamide], the IC50 was ≤ 5 µM.
With `COc1ccc(-c2nncc3cc(-c4cc(C(N)=O)ccc4C)ccc23)c(C(F)(F)F)c1` [Example 237, 3-{1-[4-methoxy-2-(trifluoromethyl)phenyl]phthalazin-6-yl}-4-methylbenzamide] the figure was ≤ 5 µM.
For `CC[C@H](C)Oc1nncc2cc(-c3cc(C(N)=O)ccc3C)ccc12` [Example 322, 4-methyl-3-(1-{[(1S)-1-methylpropyl]oxy}phthalazin-6-yl)benzamide], the concentration for half-maximal inhibition (IC50) is ≤ 5 µM.
As to `Cc1ccc(C(=O)NC2CC2)cc1-c1ccc2c(N3C[C@@H](C)O[C@@H](C)C3)nncc2c1` [Example 142, N-cyclopropyl-3-{1-[(2R,6S)-2,6-dimethylmorpholin-4-yl]phthalazin-6-yl}-4-methylbenzamide], the IC50 was ≤ 5 µM.
As to `COc1ccccc1Oc1nncc2cc(-c3cc(C(N)=O)ccc3C)ccc12` [Example 306, 3-[1-(2-methoxyphenoxy)phthalazin-6-yl]-4-methylbenzamide], the IC50 was ≤ 5 µM.
With `CC[C@@H](C)Nc1nncc2cc(-c3c(C)ccc4c(NC)noc34)ccc12` [Example 366, 6-[6-methyl-3-(methylamino)-1,2-benzisoxazol-7-yl]-N-[(1R)-1-methylpropyl]phthalazin-1-amine] the figure was ≤ 5 µM; with `Cc1ccc(C(N)=O)cc1-c1ccc2c(N3CCCC[C@H]3C)nncc2c1` [Example 182, 4-methyl-3-{1-[(2R)-2-methylpiperidin-1-yl]phthalazin-6-yl}benzamide], ≤ 5 µM.
Regarding `Cc1ccc2c(N)noc2c1-c1ccc2c(N3CCOC[C@@H]3C)nncc2c1` [Example 387, 6-methyl-7-{1-[(3S)-3-methylmorpholin-4-yl]phthalazin-6-yl}-1,2-benzisoxazol-3-amine], the half-inhibitory concentration (IC50) was ≤ 5 µM.
Turning to `CC(=O)N1CCC(c2nncc3cc(-c4cc(C(=O)NC5CC5)ccc4C)ccc23)CC1` [Example 67, 3-(1-(1-acetylpiperidin-4-yl)phthalazin-6-yl)-N-cyclopropyl-4-methylbenzamide], the IC50 was ≤ 5 µM.
For the molecule `CSc1ccc(-c2nncc3cc(-c4cc(C(=O)NC5CC5)ccc4C)ccc23)c(C)c1` [Example 261, N-cyclopropyl-4-methyl-3-{1-[2-methyl-4-(methylsulfanyl)phenyl]phthalazin-6-yl}benzamide], the IC50 was ≤ 5 µM.
With `CNc1noc2c(-c3ccc4c(-c5ccccc5C)nncc4c3)c(C)ccc12` [Example 396, N,6-dimethyl-7-[1-(2-methylphenyl)phthalazin-6-yl]-1,2-benzisoxazol-3-amine] the figure was ≤ 5 µM; with `Cc1ccc(C(=O)NC2CC2)cc1-c1ccc2c(Oc3cccnc3C)nncc2c1` [Example 308, N-cyclopropyl-4-methyl-3-{1-[(2-methylpyridin-3-yl)oxy]phthalazin-6-yl}benzamide], ≤ 5 µM; with `Cc1ccc(-c2nncc3cc(-c4cc(C(=O)NC5CC5)ccc4C)ccc23)c(Cl)c1` [Example 235, 3-[1-(2-chloro-4-methylphenyl)phthalazin-6-yl]-N-cyclopropyl-4-methylbenzamide], ≤ 5 µM.
With `Cc1ccc(C(=O)NC2CC2)cc1-c1ccc2c(N3CCC(O)(C(C)C)CC3)nncc2c1` [Example 61, N-cyclopropyl-3-(1-(4-hydroxy-4-isopropylpiperidin-1-yl)phthalazin-6-yl)-4-methylbenzamide] the figure was ≤ 5 µM; with `C[C@H]1COCCN1c1nncc2cc(-c3ccc(C(F)(F)F)c4c(NC(C)(C)C)noc34)ccc12` [Example 16, N-tert-butyl-7-(1-((S)-3-methylmorpholino)phthalazin-6-yl)-4-(trifluoromethyl)benzo[d]isoxazol-3-amine], ≤ 5 µM.
Regarding `Cc1ccccc1-c1nncc2cc(-c3c(C)ccc4c(NC5CC5)noc34)ccc12` [Example 374, N-cyclopropyl-6-methyl-7-[1-(2-methylphenyl)phthalazin-6-yl]-1,2-benzisoxazol-3-amine], the IC50 was ≤ 5 µM.
